Experimental data as given in patent US20240197694A1, “MODIFIED PROTEINS AND PROTEIN BINDERS” (Cullgen (Shanghai), Inc., priority 2021, published 2024).

Target: T1, DCAF1 (1058-1396) (Homo sapiens, UniProt Q9Y4B6)
T1 construct: a fragment of a DCAF1 protein that includes amino acid residues A1058 to E1396; His6 (N, cleaved yes); made in house; host or cells: Sf9 insect cells (Bac-to-Bac baculovirus, pFastBacHT vector)
Test: Surface plasmon resonance (SPR) binding assay, compound binding to DCAF1
Settings: immobilized DCAF1 (1058-1396), steady state affinity model, 25° C.
Procedure: Binding affinities of specific exemplary compounds to DCAF1 (1058-1396), which is a fragment of a DCAF1 protein that includes amino acid residues A1058 to E1396 were determined by a surface plasmon resonance (SPR) assay. Briefly, purified DCAF1 (1058-1396) proteins were immobilized at a density of 9,000-11,000 resonance units (RUs) on a CMS sensor chip. Sensorgrams were recorded at different concentrations of compounds in multi-cycle kinetic format. Data were analyzed using a steady state affinity model through Biacore Evaluation Software to provide equivalent dissociation constants (Kd).
Binding affinities of compounds to DCAF1 were determined by a surface plasmon resonance (SPR) assay. Purified DCAF1 (1058-1396) proteins were immobilized on a CMS sensor chip, and a dose range of compound solutions were injected in multi-cycle kinetic format. Data were analyzed using a steady state model to provide equivalent dissociation constants (Kd).
Protein Expression and Purification: Human DCAF1 (1058-1396) (UniPro: Q9Y4B6) coding sequences were cloned into pFastBacHT vector and were expressed in Sf9 cells using Bac-to-Bac baculovirus expression system (Thermo Fisher Scientific). The expression construct for DCAF1 (1058-1396) included a N-terminal His6-tag to facilitate the purification. DCAF1 (1058-1396) proteins were obtained from supernatants of cell lysates and purified through sequential application of Ni affinity chromatography (Ni-NTA column, Bio-Rad), Tag removal using TEV protease, and size-exclusion chromatography (Superdex 200 column, GE Healthcare).
Surface plasmon resonance (SPR) binding assays: SPR studies were performed on a Biacore X100 plus or T200 instrument (GE Healthcare). Immobilization of purified DCAF1 (1058-1396) was carried out at 25° C. using a CMS sensor chip. The surface was pre-equilibrated in HBS-EP running buffer (10 mM HEPES, pH 7.4, 150 mM NaCl, 3 mM EDTA, 0.05% P20), before being activated with EDC/NHS. DCAF1 (1058-1396) was immobilized through amino groups to a density of 9,000-12,000 resonance units (RUs) on flow cell channel 2 (FC2), whereas flow cell channel 1 (FC1) was used as reference. Both DCAF1 immobilized and reference surfaces were deactivated with 1 M ethanolamine.
Interaction experiments were performed at 25° C. The compounds were prepared and serially diluted in HBS-EP running buffer containing final 2% DMSO (6-point two-fold serial dilution, 100 μM -3.125 μM final concentration of compounds). Compound Solutions were injected individually in multi-cycle kinetic format without regeneration (flow rate 30 μL/min, association time 60 s, dissociation time 60 s). Sensorgrams from reference surfaces and blank injections were subtracted from the raw data (double-referenced) and the data was solvent-corrected prior to analysis. Data were analyzed using a steady state affinity model through Biacore Evaluation Software to provide equivalent dissociation constants (Kd).

T1 sequence (Q9Y4B6 1058-1396): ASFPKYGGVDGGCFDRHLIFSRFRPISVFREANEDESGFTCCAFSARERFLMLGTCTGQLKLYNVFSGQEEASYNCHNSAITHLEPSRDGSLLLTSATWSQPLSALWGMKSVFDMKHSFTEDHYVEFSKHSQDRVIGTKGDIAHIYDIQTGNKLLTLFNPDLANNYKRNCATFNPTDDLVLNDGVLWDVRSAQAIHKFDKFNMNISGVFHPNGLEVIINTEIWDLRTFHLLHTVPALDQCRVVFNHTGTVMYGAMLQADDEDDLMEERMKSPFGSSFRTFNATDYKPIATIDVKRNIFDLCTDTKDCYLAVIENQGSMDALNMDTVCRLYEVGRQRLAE

Compound	Kd
Cc1cc(N)n(CC(=O)N(C)CC2Cc3ccccc3CN2C)n1 (stereo not drawn) [CPD-093, 2-(5-amino-3-methyl-1H-pyrazol-1-yl)-N-methyl-N-((2-methyl-1,2,3,4-tetrahydroisoquinolin-3-yl)methyl)acetamide]	40 to 70 µM
Cc1ccc2c(c1)C1CN(C)CCC1N2C(=O)/C=C/c1ccc2c(c1)OCO2 (stereo not drawn) [CPD-086, (E)-3-(benzo[d][1,3]dioxol-5-yl)-1-(2,8-dimethyl-1,2,3,4,4a,9b-hexahydro-5H-pyrido[4,3-b]indol-5-yl) prop-2-en-1-one]	> 100 µM
CN1Cc2ccccc2CC1CNc1ncccc1F (stereo not drawn) [CPD-007, 3-fluoro-N-((2-methyl-1,2,3,4-tetrahydroisoquinolin-3-yl)methyl)pyridin-2-amine]	> 100 µM
CN1Cc2cc(NCCCCCCN)ccc2CC1CNc1ncccc1F (stereo not drawn) [CPD-018, N1-(3-(((3-fluoropyridin-2-yl)amino)methyl)-2-methyl-1,2,3,4-tetrahydroisoquinolin-7-yl)hexane-1,6-diamine]	40 to 70 µM
Cn1cccc1CNCc1cccnc1 [CPD-002, 1-(1-methyl-1H-pyrrol-2-yl)-N-(pyridin-3-ylmethyl)methanamine]	> 100 µM
NCCCCCCn1c2c(c3cc(F)ccc31)CN(CCc1cnn[nH]1)CC2 [CPD-014, 6-(2-(2-(1H-1,2,3-triazol-5-yl)ethyl)-8-fluoro-1,2,3,4-tetrahydro-5H-pyrido[4,3-b]indol-5-yl)hexan-1-amine]	40 to 70 µM
COc1cc(C)ccc1C(=O)N1c2ccc(C)cc2C2CN(C)CCC21 (stereo not drawn) [CPD-067, (2,8-dimethyl-1,2,3,4,4a,9b-hexahydro-5H-pyrido[4,3-b]indol-5-yl)(2-methoxy-4-methylphenyl)methanone]	> 100 µM
NCCOCCOCCOCCn1cccc1CNCc1ccncc1 [CPD-006, 2-(2-(2-(2-(2-(((pyridin-4-ylmethyl)amino)methyl)-1H-pyrrol-1-yl)ethoxy)ethoxy)ethoxy)ethan-1-amine]	40 to 70 µM
CN(C)C(=O)c1ccc(NCC2Cc3ccccc3CN2C)nc1 (stereo not drawn) [CPD-089, N,N-dimethyl-6-(((2-methyl-1,2,3,4-tetrahydroisoquinolin-3-yl)methyl)amino)nicotinamide]	70 to 100 µM
CN1Cc2ccccc2CC1CNC(=O)c1nc(=N)[nH]c2c1CCCC2 (stereo not drawn) [CPD-092, 2-imino-N-((2-methyl-1,2,3,4-tetrahydroisoquinolin-3-yl)methyl)-1,2,5,6,7,8-hexahydroquinazoline-4-carboxamide]	40 to 70 µM
Cc1ccc2c(c1)C1CN(C)CCC1N2C(=O)c1nc(Cl)ccc1Cl (stereo not drawn) [CPD-066, (3,6-dichloropyridin-2-yl) (2,8-dimethyl-1,2,3,4,4a,9b-hexahydro-5H-pyrido[4,3-b]indol-5-yl)methanone]	> 100 µM
Cn1cccc1CNCc1ccncc1 [CPD-001, 1-(1-methyl-1H-pyrrol-2-yl)-N-(pyridin-4-ylmethyl)methanamine]	40 to 70 µM
O=C(O)CCN1CCc2[nH]c3ccc(Br)cc3c2C1 [CPD-054, 3-(8-bromo-1,3,4,5-tetrahydro-2H-pyrido[4,3-b]indol-2-yl)propanoic acid]	> 100 µM
COc1cc(C)cc(CNCc2cnc[nH]2)c1 [CPD-028, N-((1H-imidazol-5-yl)methyl)-1-(3-methoxy-5-methylphenyl) methanamine]	> 100 µM
Cc1ccc2c(c1)C1CN(C)CCC1N2C(=O)/C=C/c1ccc(F)cc1 (stereo not drawn) [CPD-084, (E)-1-(2,8-dimethyl-1,2,3,4,4a,9b-hexahydro-5H-pyrido [4,3-b]indol-5-yl)-3-(4-fluorophenyl)prop-2-en-1-one]	40 to 70 µM
Cc1ccc2c(c1)C1CN(C)CCC1N2C(=O)c1cc2c(C)nn(-c3ccc(Cl)cc3)c2s1 (stereo not drawn) [CPD-074, (1-(4-chlorophenyl)-3-methyl-1H-thieno[2,3-c]pyrazol-5-yl)(2,8-dimethyl-1,2,3,4,4a,9b-hexahydro-5H-pyrido[4,3-b]indol-5-yl)methanone]	> 100 µM
c1ncc(CNCc2ccc3cc[nH]c3c2)[nH]1 [CPD-029, N-((1H-imidazol-5-yl)methyl)-1-(1H-indol-6-yl)methanamine]	> 100 µM

Compound	Kd
COc1ccc(/C=C/C(=O)N2c3ccc(C)cc3C3CN(C)CCC32)cc1 (stereo not drawn) [CPD-085, (E)-1-(2,8-dimethyl-1,2,3,4,4a,9b-hexahydro-5H-pyrido [4,3-b]indol-5-yl)-3-(4-methoxyphenyl)prop-2-en-1-one]	> 100 µM
CCn1nc(C2CC2)cc1C(=O)N1c2ccc(C)cc2C2CN(C)CCC21 (stereo not drawn) [CPD-071, (3-cyclopropyl-1-ethyl-1H-pyrazol-5-yl)(2,8-dimethyl-1,2,3,4,4a,9b-hexahydro-5H-pyrido[4,3-b]indol-5-yl)methanone]	> 100 µM
O=c1cc(CNCc2cnc[nH]2)cc[nH]1 [CPD-026, 4-((((1H-imidazol-5-yl)methyl)amino)methyl)pyridin-2(1H)-one]	> 100 µM
Cc1ccc2c(c1)C1CN(C)CCC1N2C(=O)c1ccnc(OCC(F)F)c1 (stereo not drawn) [CPD-069, (2-(2,2-difluoroethoxy)pyridin-4-yl)(2,8-dimethyl-1,2,3,4,4a,9b-hexahydro-5H-pyrido[4,3-b]indol-5-yl)methanone]	> 100 µM
CN1CCc2[nH]c3ccc(Cl)cc3c2C1 [CPD-046, 8-chloro-2-methyl-2,3,4,5-tetrahydro-1H-pyrido[4,3-b]indole]	> 100 µM
COC(CN1CCc2[nH]c3ccc(F)cc3c2C1)OC [CPD-051, 2-(2,2-dimethoxyethyl)-8-fluoro-2,3,4,5-tetrahydro-1H-pyrido[4,3-b]indole]	≤ 40 µM
CN1Cc2ccccc2CC1CNc1nccc(-c2ccncc2)n1 (stereo not drawn) [CPD-090, N-((2-methyl-1,2,3,4-tetrahydroisoquinolin-3-yl)methyl)-4-(pyridin-4-yl)pyrimidin-2-amine]	40 to 70 µM
Cc1ccc2c(c1)C1CN(C)CCC1N2C(=O)/C=C/c1ccc(S(=O)(=O)N2CCOCC2)cc1 (stereo not drawn) [CPD-087, (E)-1-(2,8-dimethyl-1,2,3,4,4a,9b-hexahydro-5H-pyrido [4,3-b]indol-5-yl)-3-(4-(morpholinosulfonyl)phenyl)prop-2-en-1-one]	40 to 70 µM
Cc1ccc2c(c1)[C@H]1CN(C)CC[C@H]1N2C (racemic) [CPD-036, cis-2,5,8-trimethyl-2,3,4,4a,5,9b-hexahydro-1H-pyrido [4,3-b]indole]	> 100 µM
CC(C)c1ccc2[nH]c3c(c2c1)CN(CCc1cnn[nH]1)CC3 [CPD-009, 2-(2-(1H-1,2,3-triazol-5-yl)ethyl)-8-isopropyl-2,3,4,5-tetrahydro-1H-pyrido[4,3-b]indole]	40 to 70 µM
Cc1ccc2c(c1)C1CN(C)CCC1N2C(=O)c1cc(C#N)oc1C (stereo not drawn) [CPD-072, 4-(2,8-dimethyl-2,3,4,4a,5,9b-hexahydro-1H-pyrido[4,3-b]indole-5-carbonyl)-5-methylfuran-2-carbonitrile]	> 100 µM
Cc1ccc2c(c1)[C@@H]1CN(C)CC[C@H]1N2C(=O)/C=C/c1nccs1 (racemic) [CPD-035, (E)-1-(trans-2,8-dimethyl-1,2,3,4,4a,9b-hexahydro-5H-pyrido [4,3-b]indol-5-yl)-3-(thiazol-2-yl)prop-2-en-1-one]	> 100 µM
Cc1ccc2c(c1)C1CN(C)CCC1N2C(=O)/C(=C/c1ccc(Cl)cc1)c1ccc(F)cc1 (stereo not drawn) [CPD-088, (E)-3-(4-chlorophenyl)-1-(2,8-dimethyl-1,2,3,4,4a,9b-hexahydro-5H-pyrido[4,3-b]indol-5-yl)-2-(4-fluorophenyl)prop-2-en-1-one]	40 to 70 µM
Cc1ccc2[nH]c3c(c2c1)C[N+](C)(C)CC3 [CPD-021, 2,2,8-trimethyl-2,3,4,5-tetrahydro-1H-2λ^4-pyrido[4,3-b]indol-3-ylium]	> 100 µM
Cc1ccc2c(c1)C1CN(C)CCC1N2C(=O)/C=C/c1ccccc1 (stereo not drawn) [CPD-083, (E)-1-(2,8-dimethyl-1,2,3,4,4a,9b-hexahydro-5H-pyrido [4,3-b]indol-5-yl)-3-phenylprop-2-en-1-one]	> 100 µM
Cc1ccc2c(c1)[C@H]1CN(C)CC[C@H]1N2C(=O)/C=C/c1nccs1 (racemic) [CPD-037, (E)-1-(cis-2,8-dimethyl-1,2,3,4,4a,9b-hexahydro-5H-pyrido [4,3-b]indol-5-yl)-3-(thiazol-2-yl)prop-2-en-1-one]	> 100 µM
